Measured values from patent US4599310A, “Process for producing antitumor antibiotic compound” (priority 1985, dated 1986).
≈ marks a conversion by molar mass, not a printed value. Bridge positions count the residues as written; N and C are the ends. Square brackets hold non-standard residues; d marks the D form. Peptide text beside a SMILES is read from it. I, II: the chains in the order shown. * marks the point of attachment. Quinaldoyl(3-OH) = O=C(c1nc2ccccc2cc1O)*; NMeV = CN[CH](C(=O)O)C(C)C; Pip = O=C(O)[CH]1CCCCN1; Sar = CNCC(=O)O

Legend:
S. aureus 209P-A9497 = test: Antibacterial activity, serial two-fold agar dilution method; type: cell-based; conditions: Staphylococcus aureus, read-out: Minimum Inhibitory Concentration (MIC)
Description: (§1) The antibacterial activities of sandramycin were determined by a serial two-fold agar dilution method. The results are shown in Table 5 in comparison with the activities of luzopeptin A and echinomycin.

[1] = system: gram-positive organisms such as Bacillus subtilis and Staphylococcus aureus as well as Streptococcus faecalis; test: Antibacterial activity, serial two-fold agar dilution method (statement in words); type: cell-based
Description: as §1

P-388 leukemia = test: Transplantable mouse tumor P-388 leukemia; type: in vivo, mouse (CDF1 female mice); conditions: for MST (median survival time): control MST 9.0 days
Description: The methodology used generally followed the protocols of the National Cancer Institute [Cancer Chemotherapy Rep. Part 3, 3, 1-103 (1972)]. The essential experimental details are given at the bottom of Table 6. Two different dose regimens were tested: single dose on day 1 and daily for 5 days. With both schedules, the optimum dose appears to be about 0.2 mg/kg/injection.
Tumor inoculum: 10^6 ascites cells implanted i.p.
Evaluation: MST = median survival time
Effect: % T/C ≥ (MST treated/MST control) × 100
Criteria: % T/C = 125 considered significant antitumor activity
AWC: average weight change (treatedcontrol) in grams (on day 4)

Work on `CS[C@H]1SC[C@H]2C(=O)N(C)[C@@H](C(C)C)C(=O)OC[C@@H](NC(=O)c3cnc4ccccc4n3)C(=O)N[C@@H](C)C(=O)N(C)[C@@H]1C(=O)N(C)[C@@H](C(C)C)C(=O)OC[C@@H](NC(=O)c1cnc3ccccc3n1)C(=O)N[C@@H](C)C(=O)N2C` [Echinomycin, reference compound] yielded an MIC (S. aureus 209P-A9497) of 0.012 µg/mL (≈ 0.0109 µM).

With `CC(C)C1C(=O)OCC(NC(=O)c2nc3ccccc3cc2O)C(=O)N2CCCCC2C(=O)NCC(=O)N(C)CC(=O)N(C)C(C(C)C)C(=O)OCC(NC(=O)c2nc3ccccc3cc2O)C(=O)N2CCCCC2C(=O)NCC(=O)N(C)CC(=O)N1C` (stereo not drawn) [Sandramycin] (I: {Quinaldoyl(3-OH)}-S[Pip]G[Sar][NMeV] / II: {Quinaldoyl(3-OH)}-S[Pip]G[Sar][NMeV]; ester I:1-II:C, I:C-II:1; configuration not given here) the MIC (S. aureus 209P-A9497) was 0.012 µg/mL (≈ 0.00983 µM), the antibacterial activity [1] was “strongly inhibitory” and the optimum dose (P-388 leukemia; both schedules: single dose on day 1 and daily for 5 days, IP) was “about 0.2 mg/kg/injection”. For the same compound, the “AWC (average weight change) Day 4” value (P-388 leukemia; d. 1, IP, 0.025 mg/kg/inj.) was -0.2 gm, the “MST (median survival time)” value (P-388 leukemia; d. 1, IP, 0.025 mg/kg/inj.) was 9.5 days and the “AWC (average weight change) Day 4” value (P-388 leukemia; d. 1, IP, 0.05 mg/kg/inj.) was -0.6 gm. The “MST (median survival time)” value (P-388 leukemia; d. 1, IP, 0.05 mg/kg/inj.) was 10.0 days, the “AWC (average weight change) Day 4” value (P-388 leukemia; d. 1, IP, 0.1 mg/kg/inj.) was -0.9 gm and the “MST (median survival time)” value (P-388 leukemia; d. 1, IP, 0.1 mg/kg/inj.) was 11.0 days. For the same compound, the “AWC (average weight change) Day 4” value (P-388 leukemia; d. 1, IP, 0.2 mg/kg/inj.) was -1.4 gm, the “AWC (average weight change) Day 4” value (P-388 leukemia; d. 1, IP, 0.4 mg/kg/inj.) was -0.7 gm and the “MST (median survival time)” value (P-388 leukemia; d. 1, IP, 0.4 mg/kg/inj.) was 11.0 days. The “AWC (average weight change) Day 4” value (P-388 leukemia; d. 1, IP, 0.8 mg/kg/inj.) was -1.6 gm, the “MST (median survival time)” value (P-388 leukemia; d. 1, IP, 0.8 mg/kg/inj.) was 10.0 days and the “AWC (average weight change) Day 4” value (P-388 leukemia; d. 1, IP, 1.6 mg/kg/inj.) was -1.3 gm. The “AWC (average weight change) Day 4” value (P-388 leukemia; d. 1, IP, 3.2 mg/kg/inj.) was -2.8 gm, the “MST (median survival time)” value (P-388 leukemia; d. 1, IP, 3.2 mg/kg/inj.) was “Toxic” and the “AWC (average weight change) Day 4” value (P-388 leukemia; d. 1→5, IP, 0.0125 mg/kg/inj.) was -0.9 gm. The “Survivors Day 5” value (P-388 leukemia; d. 1→5, IP, 0.0125 mg/kg/inj.) was 6/6, the “AWC (average weight change) Day 4” value (P-388 leukemia; d. 1→5, IP, 0.025 mg/kg/inj.) was -1.4 gm and the “MST (median survival time)” value (P-388 leukemia; d. 1→5, IP, 0.025 mg/kg/inj.) was 10.0 days. The “AWC (average weight change) Day 4” value (P-388 leukemia; d. 1→5, IP, 0.05 mg/kg/inj.) was -1.8 gm, the “MST (median survival time)” value (P-388 leukemia; d. 1→5, IP, 0.05 mg/kg/inj.) was 8.5 days and the “AWC (average weight change) Day 4” value (P-388 leukemia; d. 1→5, IP, 0.1 mg/kg/inj.) was -0.8 gm. The “AWC (average weight change) Day 4” value (P-388 leukemia; d. 1→5, IP, 0.2 mg/kg/inj.) was -1.7 gm, the “MST (median survival time)” value (P-388 leukemia; d. 1→5, IP, 0.2 mg/kg/inj.) was 12.0 days and the “AWC (average weight change) Day 4” value (P-388 leukemia; d. 1→5, IP, 0.4 mg/kg/inj.) was -1.3 gm. For the same compound, the “MST (median survival time)” value (P-388 leukemia; d. 1→5, IP, 0.4 mg/kg/inj.) was 11.0 days, the “AWC (average weight change) Day 4” value (P-388 leukemia; d. 1→5, IP, 0.8 mg/kg/inj.) was -1.4 gm and the “MST (median survival time)” value (P-388 leukemia; d. 1→5, IP, 0.8 mg/kg/inj.) was 6.0 days. For the same compound, the “AWC (average weight change) Day 4” value (P-388 leukemia; d. 1→5, IP, 1.6 mg/kg/inj.) was -1.7 gm and the “MST (median survival time)” value (P-388 leukemia; d. 1→5, IP, 1.6 mg/kg/inj.) was “Toxic”.
